Experimental data from US20120114714A1, “METHOD FOR THE TREATMENT AND PREVENTION OF ERECTILE DYSFUNCTION” (priority 2006, published 2012).

How the values were obtained:
[1] = tested on: penile corpus cavernosum smooth muscles; assay: Relaxation of phenylephrine-contracted penile corpus cavernosum smooth muscle sections in organ bath; design: species or system New Zealand white rabbit; settings: for Relaxation (%): conc. 10^−4 M, section contracted with 10^−4 M phenylephrine
Source text: A New Zealand white rabbit (2.5 to 3.0 kg) was anesthetized and the overall penis was then dissected from the rabbit. The penile corpus cavernosum smooth muscles were separated from the tunica albuginea in a low-temperature Tyrode's solution aerated with a 95% O2-5% CO2 gas mixture, while observing with a dissection microscope, to prepare a penis section. The penis section was fixed in an organ bath (10 cc) containing a Tyrode's solution. At this time, the one end of the penis section was fixed on the bottom of the organ bath, and a variation in isometric tension of the penile corpus cavernosum smooth muscles was then measured with a force displacement transducer at the other end thereof. After reaching an equilibrium state, the penile section was contracted by treatment of 10^−4 M phenylephrine.
According to the drug used to treat the penile section, the experimental groups used herein were divided into six groups, i.e., i) a group with administration of SNP as a NO donor, ii) a group with administration of Zaprinast as an inhibitor against PDE-5, an enzyme that mediates hydrolysis of c-GMP, a group with administration of acetylcholine that acts on the nervous system, iv) a group with administration of metformin, one of conventional AMPK activators, v) a group with administration of AICAR (5-aminoimidazole-4-carboxamide-1-beta-D-ribofuranoside), and vi) a group with administration of the compound 1 according to the present invention. These groups were compared with one another, in view of relaxation (%) of the penile corpus cavernosum.

diabetes-induced rats = assay: Internal pressure of penile corpus cavernosum after electrostimulation in STZ diabetes-induced rats; type: in vivo, Sprague-Dawley white rats; settings: oral for 5 weeks, AICAR 500 mg/kg, compound 1 250 mg/kg, FIG. 7
Source text: In order to confirm in vivo whether penile erection of a diabetes-induced rat has an influence on the internal pressure of the penile corpus cavernosum, 23 Sprague-Dawley white rats (about 300 g) are divided into a normal control group (Group I, n=6), a diabetes-induced control group (Group II, n=4), a group with administration of AICAR following the diabetes-induction (Group III, n=6), and a group with administration of the compound 1 (Group IV, n=7).
STZ (streptozotocin) was used to induce diabetes, and the AICAR and the compound 1 were orally administered in dosages of 500 mg/kg and 250 mg/kg, respectively, for 5 weeks. Each of the experimental groups was systemically anesthetized, intubated into one-side of the carotid in order to measure blood pressure, a electrostimulation-purpose catheter was set in the penile corpus cavernosum nerves in the cavum pelvis, and the internal pressure of the penile corpus cavernosum was measured. Electrostimulation was applied to the group for one minute (frequency: 10 Hz, delay: 4 ms, duration: 5 ms, volt: 3V). An increase in internal pressure of the groups was measured, and the groups were compared with one another in view of the increase in internal pressure.

[2] = tested on: penile corpus cavernosum smooth muscles; assay: Compound 1-induced relaxation after endothelium removal (CHAPS) and HO-2 inactivation (ZnPP); design: species or system New Zealand white rabbits
Source text: To ascertain the pharmacological mechanism the compound 1 acts on the relaxation of the penile corpus cavernosum smooth muscles in the New Zealand white rabbits, the smooth muscle sections were relaxed by the treatment of the compound 1 and endothelial cells were then removed from the smooth muscle sections using 10^−4 M of CHAPS (3-[(3-cholamidopropyl) dimethylammonio]-1-propanesulfonate, 0.3% in buffer solution; Sigma) as a lysis buffer. Subsequently, as another neurotransmitter, zinc-protoporphyrin-IX (ZnPP) was administrated thereto, which inactivates heme oxygenase-2 (HO-2) that produces carbon monoxide (CO) that is in vivo produced by blood and acts as a vasodilator.

[3] = tested on: penile corpus cavernosum smooth muscles; assay: Compound 1-induced relaxation upon blocking of the NO pathway (L-NAME, methylene blue); design: species or system New Zealand white rabbit; settings: FIG. 4
Source text: To confirm the effects of the compound 1 on relaxation of the penile corpus cavernosum smooth muscles upon blocking of a NO pathway, the penile corpus cavernosum smooth muscle sections were contracted by the treatment of phenylephrine, relaxed by the treatment of the compound 1, and then sequentially treated with methylene blue as an inhibitor against guanylate cyclase that helps production of c-GMP and with L-NAME (L-nitroarginine methyl ester) that inhibits production of NO via inhibitory activity against eNOS.

[4] = tested on: endothelial nitric oxide synthase (eNOS); assay: Phosphorylation of eNOS in HUVEC cells (anti-pS1177 eNOS); type: cell-based; settings: compound 1 10 uM, FIG. 3
Description: In order to ascertain whether the compound 1 acting as an AMPK activator is implicated in the production of NO, phosphorylation to promote the activity of endothelial nitric oxide synthase (eNOS) was measured. So as to confirm the phosphorylation of eNOS through the compound 1, HUVEC cells were seeded on a 60 mm plate at 1×10^5 in an EBM2/5% FBS medium and cultured for 24 hours. The medium was replaced by a serum-free EBM2 medium and the treatment with the compound 1 (10 uM) was performed for a predetermined period. An anti-pS1177 eNOS was used to measure the phosphorylated eNOS.

[5] = target: Phosphodiesterase type 5 (PDE 5) (Homo sapiens, UniProt O76074); settings: cited from earlier work

CN(C)C(=N)N=C(N)N [Metformin, metformin]
Relaxation (%) [1]: 0.1%

CC1(C)CCC2=C(O1)c1ccccc1C(=O)C2=O [Compound 1, β-lapachone]
average of the highest internal pressure increase of the penile corpus cavernosum after electrostimulation (diabetes-induced rats): 9.7±5.1 mmHg
Relaxation (%) [1]: 92%
relaxation effects of penile corpus cavernosum smooth muscles (FIG. 2) ([1]; concentration range of 10^−9 to 10^−7 M): about double that of the SNP-administration group
relaxation of the CHAPS-administration group (no Znpp) relative to relaxation of the compound 1-administration group ([2]; 10^−4 M CHAPS, endothelial cells removed): about 45%
relaxation of the ZnPP-administration group ([2]; CHAPS plus zinc-protoporphyrin-IX (ZnPP), FIGS. 5 and 6): almost completely inhibited
relaxation caused by the compound 1 after L-NAME and methylene blue ([3]; 10^−3 M of L-NAME and 10^−3 M of methylene blue): partially inhibited
inhibition of relaxation by methylene blue compared to the L-NAME-treatment group ([3]; methylene blue 10^−4 M): more greatly inhibited
phosphorylation of eNOS (p-eNOS) at 2 hours ([4]; 2 hours): not observed
time at which phosphorylation of eNOS (p-eNOS) is maximized [4]: 30 min

CC(=O)OCC[N+](C)(C)C [Acetylcholine, acetylcholine]
Relaxation (%) [1]: 21%

CCCOc1ccccc1-c1nc2nn[nH]c2c(=O)[nH]1 [Zaprinast]
Relaxation (%) [1]: 36%

NC(=O)c1ncn([C@@H]2O[C@H](CO)[C@@H](O)[C@H]2O)c1N [AICAR, 5-aminoimidazole-4-carboxamide-1-beta-D-ribofuranoside, reference compound]
average of the highest internal pressure increase of the penile corpus cavernosum after electrostimulation (diabetes-induced rats): 4.3±1.0 mmHg
Relaxation (%) [1]: 10%

CCCc1nn(C)c2c(=O)[nH]c(-c3cc(S(=O)(=O)N4CCN(C)CC4)ccc3OCC)nc12 [Viagra]
selectivity of PDE 5 inhibition [5]: ≥ 4,000 folds
